{
  "source": "patent US20240024348A1",
  "about": "“METHODS AND COMPOSITIONS FOR THE TREATMENT OF GLAUCOMA AND RELATED CONDITIONS” (Ophthalmic Therapeutic Innovation, priority 2022, published 2024)",
  "origin": "cited, not measured here",
  "molecules": {"B1": {"name": "MMP-2: matrix metalloproteinase (protein, UniProt P08253 110-660, looked up)", "72 kDa type IV collagenase": "YNFFPRKPKWDKNQITYRIIGYTPDLDPETVDDAFARAFQVWSDVTPLRFSRIHDGEADIMINFGRWEHGDGYPFDGKDGLLAHAFAPGTGVGGDSHFDDDELWTLGEGQVVRVKYGNADGEYCKFPFLFNGKEYNSCTDTGRSDGFLWCSTTYNFEKDGKYGFCPHEALFTMGGNAEGQPCKFPFRFQGTSYDSCTTEGRTDGYRWCGTTEDYDRDKKYGFCPETAMSTVGGNSEGAPCVFPFTFLGNKYESCTSAGRSDGKMWCATTANYDDDRKWGFCPDQGYSLFLVAAHEFGHAMGLEHSQDPGALMAPIYTYTKNFRLSQDDIKGIQELYGASPDIDLGTGPTPTLGPVTPEICKQDIVFDGIAQIRGEIFFFKDRFIWRTVTPRDKPMGPLLVATFWPELPEKIDAVYEAPQEEKAVFFAGNEYWIYSASTLERGYPKPLTSLGLPPDVQRVDAAFNWSKNKKTYIFAGDKFWRYNEVKKKMDPGFPKLIADAWNAIPDNLDAVVDLQGGGHSYFFKGAYYLKLENQSLKSVKFGSIKSDWLGC"}},
  "key": {"[1]": {"tested_on": "human TM cell", "conditions": "high concentration (10 ug/mL); cited from earlier work"}, "[2]": {"tested_on": "patients or human subjects", "conditions": "cited from earlier work; for conjunctiva hyperemia: eye drops, clinical trials"}, "[3]": {"tested_on": "patients with POAG/OH", "conditions": "cited from earlier work; for IOP reduction: Ph2, 1.5% BID"}, "[4]": {"tested_on": "Dutch-belted pigmented and normotensive rabbit eyes", "conditions": "single dose 0.6% eye drop, cited from earlier work"}, "[5]": {"tested_on": "POAG/OH patients with Latanoprost poor responders", "conditions": "cited from earlier work"}, "[6]": {"tested_on": "patients", "conditions": "3% QD and 6% QD with 0.005% QD Lantanoprost; cited from earlier work"}, "[7]": {"tested_on": "young and aged C57 mice", "conditions": "7 days, cited from earlier work"}, "[8]": {"tested_on": "NAION mice model", "conditions": "cited from earlier work"}, "[9]": {"tested_on": "human TM cell", "conditions": "human TM cell culture; cited from earlier work"}, "[10]": {"tested_on": "aged mice", "conditions": "6% treatment, vs placebo treated eyes; cited from earlier work"}, "[11]": {"tested_on": "ischemia-reperfusion rodent model", "conditions": "cited from earlier work"}, "[12]": {"tested_on": "light damaged rat models", "conditions": "cited from earlier work"}, "[13]": {"tested_on": "rat", "conditions": "cited from earlier work"}, "[14]": {"tested_on": "patient with NTG", "conditions": "cited from earlier work"}, "[15]": {"tested_on": "patients with refractory glaucoma", "conditions": "two individual patients with refractory glaucoma; cited from earlier work"}, "[16]": {"conditions": "human donor eyes; cited from earlier work"}},
  "note": "“Also recorded” adds a separate entry of the source. Where two headings read alike, the source gives them in different places.",
  "data": [
    {"molecule": "CC(C)OC(=O)CCC/C=C\\C[C@@H]1[C@@H](CC[C@@H](O)CCc2ccccc2)[C@H](O)C[C@@H]1O", "note": "[Latanoprost]", "values": [
      {"measurement": "MMP-9 expression", "setting": "[1]", "result": "upregulates MMP-9 expression"}
    ]},
    {"molecule": "Cc1ccc(C(=O)OCc2ccc([C@@H](CN)C(=O)Nc3ccc4cnccc4c3)cc2)c(C)c1", "note": "[Rhopressa, reference compound]", "values": [
      {"measurement": "conjunctiva hyperemia", "setting": "[2]", "result": 50, "unit": "%"}
    ]},
    {"molecule": "Trabodenoson", "values": [
      {"measurement": "IOP dose response curve (IOP reduction from baseline IOP)", "setting": "[3]; 14-Day Phase 2 dose escalation, 0.15%, 0.3%, 0.6%, 1.5% BID", "result": 0.6, "unit": "% BID peaked at the top"},
      {"measurement": "IOP reduction", "setting": "[3]; day 14, baseline IOP>21 mmHg", "result": 6.5, "unit": "mmHg"},
      {"measurement": "IOP reduction", "setting": "[3]; day 14, baseline IOP>25 mmHg", "result": "> 7", "unit": "mmHg"},
      {"measurement": "IOP improvement, day 28 vs Day 14", "setting": "[3]; Phase 2, 1.5% BID eye drops, baseline IOP>21 mmHg, in 2 weeks", "result": 0.9, "unit": "mmHg"},
      {"measurement": "IOP reduction POAG vs OH", "setting": "[3]; Phase 2, 1.5% BID, early-stage population", "result": "higher IOP reduction in patients with POAG than that with OH"},
      {"measurement": "IOP reduction from the diurnal IOP at day -1", "setting": "[3]; Phase 2 dose escalation, Day 14", "result": "1.5% BID is more effective than 0.15% BID, 0.3% BID, 0.6% BID at Day 14"},
      {"measurement": "Phase 3 IOP endpoint", "setting": "[3]; Phase 3 clinical trials, 3 months", "result": "failed to meet the IOP endpoint at 3 months"},
      {"measurement": "IOP time course", "setting": "[3]; Phase 3 monotherapy, 6% QD, 3 months, vs placebo", "result": "incremental increase of the IOP reduction; also recorded: continuous IOP improvement over a course of 3 months with clinical significance compared to placebo"},
      {"measurement": "maximal IOP reduction", "setting": "[3]; eye drops 1.5% BID, day 28 (4 weeks), early stage POAG/OH", "result": "6-7 mmHg"},
      {"measurement": "time before reaching a steady state", "setting": "[3]; eye drops, early stage POAG/OH with very mild damage", "result": "more than 3 months"},
      {"measurement": "systemic clinical safety and ocular tolerability", "setting": "[2]; 819 subjects, 2 weeks to 3 months, 0.15% BID to 6% QD, up to 18% single dose", "result": "excellent systemic clinical safety and ocular tolerability"},
      {"measurement": "conjunctiva hyperemia", "setting": "[2]", "result": 2.56, "unit": "%"},
      {"measurement": "IOP reduction from the baseline", "setting": "[4]; at 2 hours", "result": "25%-27%"},
      {"measurement": "time of IOP return to the baseline", "setting": "[4]", "result": 6, "unit": "h"},
      {"measurement": "IOP time course", "setting": "[5]; 1.5% BID 8 weeks then 3.0% QD 4 weeks, add-on to Latanoprost, 12 weeks", "result": "robust and continuous IOP improvement over the course of 12 weeks; also recorded: robust and incremental IOP improvement over a course of 12-week treatment time"},
      {"measurement": "effectiveness POAG vs OH", "setting": "[5]; Lantanoprost poor responders", "result": "more effective in patients with POAG than with OH"},
      {"measurement": "IOP efficacy of combination vs Lantanoprost alone", "setting": "[6]", "result": "less effective than 0.005% QD Lantanoprost alone"},
      {"measurement": "IOP reduction over time", "setting": "[7]; 3% QD, young C57 mice", "result": "sustained over 7 days"},
      {"measurement": "IOP lowering effect over time", "setting": "[7]; 6% QD, aged C57 mice", "result": "slowly diminished at day 7"},
      {"measurement": "axon loss and myelination damage of optic nerve (EM)", "setting": "[8]; 6% eye drops BID, vs placebo control", "result": "significant reduction of the axon loss and myelination damage"},
      {"measurement": "RGC neural protection", "setting": "[8]; NAION mice model", "result": "potent neural protectant for RGC cell rescue"},
      {"measurement": "MMP-14 expression", "setting": "[9]", "result": "upregulating MMP-14 expression"},
      {"measurement": "collagen IV and fibronectin", "setting": "[9]", "result": "downregulation of collagen IV and fibronectin"},
      {"measurement": "TM morphology / ECM", "setting": "[10]", "result": "TM mesh pores opening up and ECM remodeling with enlarged ECM space"},
      {"measurement": "protection of RGC and outer layer photoreceptors", "setting": "[11]", "result": "demonstrated neural protection for both RGC inner layer of the neurons and the outer layer of neurons (photoreceptors); also recorded: more potent in rescuing and protecting the RGC and outer layer photoreceptors from apoptosis"},
      {"measurement": "photoreceptor cell loss", "setting": "[12]", "result": "rescuing photoreceptor cell loss"},
      {"measurement": "heart rate", "setting": "[13]", "result": "reduces the heart rate in rat"}
    ]},
    {"molecule": "Brc1c(NC2=NCCN2)ccc2nccnc12", "note": "[Brimonidine, reference compound]", "values": [
      {"measurement": "protection of RGC and outer layer photoreceptors", "setting": "[11]", "result": "lacks effects toward the outer layer photoreceptor cells"},
      {"measurement": "protection of RGC and outer layer photoreceptors", "setting": "[11]; listed as brimonidine", "result": "did not protect photoreceptor loss"}
    ]},
    {"molecule": "O=C(CCC/C=C\\C[C@@H]1[C@@H](CC[C@@H](O)CCc2ccccc2)[C@H](O)C[C@@H]1O)OCCCCO[N+](=O)[O-]", "note": "[Vyzulta, Latanoprost Bunod]", "values": [
      {"measurement": "IOP improvement", "setting": "[14]; during the first 12-week of 12-month study, Japanese population", "result": "less than 1.0 mmHg"},
      {"measurement": "IOP improvement", "setting": "[14]; within the first 12-week of 12-month study", "result": "~0.6", "unit": "mmmHg"}
    ]},
    {"molecule": "CCCCCCCC(=O)CC[C@@H]1[C@@H](C/C=C\\CCCC(=O)OC(C)C)[C@@H](O)C[C@H]1O", "note": "[Rescula]", "values": [
      {"measurement": "IOP profile", "setting": "[15]", "result": "slow mode and accumulative improvement over time"}
    ]},
    {"molecule": "CCNC(=O)CCC/C=C\\C[C@@H]1[C@@H](/C=C/[C@@H](O)CCc2ccccc2)[C@H](O)C[C@@H]1O", "note": "[Bimatoprost]", "values": [
      {"measurement": "MMP-9 expression", "setting": "[1]", "result": "upregulates MMP-9 expression"}
    ]},
    {"molecule": "B1", "values": [
      {"measurement": "hydraulic conductance of Bruch's membrane", "setting": "[16]", "result": "increases hydraulic conductance"}
    ]}
  ]
}
